Data: patent US20230293458A1, “MULTIBIOTIC AGENTS AND METHODS OF USING THE SAME” (Flagship Pioneering Innovations V, Inc., priority 2017, published 2023)

How the values were obtained:
[1] = Stability of multibiotic agents in Simulated Gastric Fluid (SGF); format: in vitro ADME; conditions: simulated gastric fluid pH 1.6 with pepsin, 37° C., 1 μM
Procedure, shortened: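 Compounds were incubated at 1 μM final at 37 °C in simulated gastric fluid containing NaCl, pH 1.6, with FaSSIF powder and 0.1 mg/mL pepsin. Aliquots were taken at T0 and at regular intervals and quenched with acetonitrile. Degradation rates were determined by LC/MS.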

[2] = Stability of multibiotic agents in Simulated Intestinal Fluid (SIF); format: in vitro ADME; conditions: simulated intestinal fluid pH 6.7 with pancreatin, 37° C., 1 μM
Procedure, shortened: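 Compounds at 1 μM final (from 1 mM DMSO stock) incubated at 37 °C with agitation in fresh SIF (FaSSIF plus pancreatin in pH 6.7 phosphate buffer). Aliquots taken at T0 and regular intervals, quenched with 1 volume acetonitrile. Degradation rate determined by LC/MS.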

Row | Structure (SMILES) | Assay 2 (SGF) (% Remaining @ 4 hours) [1] | Assay 3 (SIF) (% @ Remaining 4 hours) [2]
1 | C[C@@H](O)CC(=O)NCCCNC(=O)C[C@@H](C)O [Example 135, (3R)-3-hydroxy-N-[3-[[(3R)-3-hydroxybutanoyl]amino]propyl]butanamide] | C (>75% of the tested compound remaining) | C (>75% of the tested compound remaining)
2 | C[C@@H](O)CC(=O)NCCCN(CCCCN(CCCNC(=O)C[C@@H](C)O)C(=O)C[C@@H](C)O)C(=O)C[C@@H](C)O [Example 136, (3R)-3-hydroxy-N-[3-[[(3R)-3-hydroxybutanoyl]-[4-[[(3R)-3-hydroxybutanoyl]-[3-[[(3R)-3-hydroxybutanoyl]amino]propyl]amino]butyl]amino]propyl]butanamide] | C (>75% of the tested compound remaining) | C (>75% of the tested compound remaining)
3 | C[C@@H](O)CC(=O)NCCCNCCCCN(CCCNC(=O)C[C@@H](C)O)C(=O)C[C@@H](C)O [Example 137, (3R)-3-hydroxy-N-[3-[4-[[(3R)-3-hydroxybutanoyl]-[3-[[(3R)-3-hydroxybutanoyl]amino]propyl]amino]butylamino]propyl]butanamide] | C (>75% of the tested compound remaining) | C (>75% of the tested compound remaining)
4 | CC(=O)OC1OC[C@H](OC(C)=O)[C@H](OC(C)=O)[C@H]1OC(C)=O (stereo partly drawn) [Example 138, [(3S,4S,5R)-4,5,6-triacetoxytetrahydropyran-3-yl] acetate] | C (>75% of the tested compound remaining) | C (>75% of the tested compound remaining)
5 | CCCC(=O)OC1OC[C@H](OC(=O)CCC)[C@H](OC(=O)CCC)[C@H]1OC(=O)CCC (stereo partly drawn) [Example 139, [(3S,4S,5R)-4,5,6-tri(butanoyloxy)tetrahydropyran-3-yl] butanoate] | C (>75% of the tested compound remaining) | C (>75% of the tested compound remaining)
6 | CCCC(=O)O[C@H]1[C@@H](OC(=O)CCC)COC(O)[C@@H]1OC(=O)CCC (stereo partly drawn) [Example 140, [(3S,4S,5R)-4,5-di(butanoyloxy)-6-hydroxy-tetrahydropyran-3-yl] butanoate] | C (>75% of the tested compound remaining) | C (>75% of the tested compound remaining)
7 | CCCC(=O)O[C@H]1[C@@H](OC(=O)CCC)COC(Oc2ccccc2C(=O)O)[C@@H]1OC(=O)CCC (stereo partly drawn) [Example 141, 2-[(3R,4S,5S)-3,4,5-tri(butanoyloxy)tetrahydropyran-2-yl]oxybenzoic acid] | C (>75% of the tested compound remaining) | A (<25% of the tested compound remaining)
8 | Cc1ncc(CO)c(COC(=O)/C=C/c2c[nH]c3ccccc23)c1OC(=O)/C=C/c1c[nH]c2ccccc12 [Example 142, [5-(hydroxymethyl)-3-[(E)-3-(1H-indol-3-yl)prop-2-enoyl]oxy-2-methyl-4-pyridyl]methyl (E)-3-(1H-indol-3-yl)prop-2-enoate] | C (>75% of the tested compound remaining) | C (>75% of the tested compound remaining)
9 | C[C@@H](O)CC(=O)NCCCNCCCNC(=O)C[C@@H](C)O [Example 143, (3R)-3-hydroxy-N-[3-[3-[[(3R)-3-hydroxybutanoyl]amino]propylamino]propyl] butanamide] | C (>75% of the tested compound remaining) | C (>75% of the tested compound remaining)
10 | CCCC(=O)O[C@@H]1[C@H](OC(=O)CCC)COC(O)[C@@H]1OC(=O)CCC (stereo partly drawn) [Example 144, [(3R,4R,5R)-4,5-di(butanoyloxy)-6-hydroxy-tetrahydropyran-3-yl] butanoate] | C (>75% of the tested compound remaining) | A (<25% of the tested compound remaining)
11 | O=C(Cc1c[nH]c2ccccc12)O[C@H]1OC[C@@H](OC(=O)Cc2c[nH]c3ccccc23)[C@@H](OC(=O)Cc2c[nH]c3ccccc23)[C@H]1OC(=O)Cc1c[nH]c2ccccc12 [Example 145, [(3R,4R,5R,6R)-4,5,6-tris[[2-(1H-indol-3-yl)acetyl]oxy]tetrahydropyran-3-yl] 2-(1H-indol-3-yl)acetate] | C (>75% of the tested compound remaining) | A (<25% of the tested compound remaining)
12 | O=C(Cc1c[nH]c2ccccc12)O[C@@H]1OC[C@@H](OC(=O)Cc2c[nH]c3ccccc23)[C@@H](OC(=O)Cc2c[nH]c3ccccc23)[C@H]1OC(=O)Cc1c[nH]c2ccccc12 [Example 146, [(3R,4R,5R,6S)-4,5,6-tris[[2-(1H-indol-3-yl)acetyl]oxy]tetrahydropyran-3-yl] 2-(1H-indol-3-yl)acetate] | C (>75% of the tested compound remaining) | A (<25% of the tested compound remaining)
13 | O=C(Cc1c[nH]c2ccccc12)O[C@H]1[C@@H](OC(=O)Cc2c[nH]c3ccccc23)COC(O)[C@@H]1OC(=O)Cc1c[nH]c2ccccc12 (stereo partly drawn) [Example 147, [(3S,4S,5R)-6-hydroxy-4,5-bis[[2-(1H-indol-3-yl)acetyl]oxy]tetrahydropyran-3-yl] 2-(1H-indol-3-yl)acetate] | C (>75% of the tested compound remaining) | B (25-75% of the tested compound remaining)
14 | O=C(CCc1c[nH]c2ccccc12)O[C@H]1[C@@H](OC(=O)CCc2c[nH]c3ccccc23)COC(O)[C@@H]1OC(=O)CCc1c[nH]c2ccccc12 (stereo partly drawn) [Example 148, [(3S,4S,5R)-6-hydroxy-4,5-bis[3-(1H-indol-3-yl)propanoyloxy]tetrahydropyran-3-yl] 3-(1H-indol-3-yl)propanoate] | C (>75% of the tested compound remaining) | A (<25% of the tested compound remaining)
15 | CCC(=O)OC1OC[C@H](OC(=O)CC)[C@H](OC(=O)CC)[C@H]1OC(=O)CC (stereo partly drawn) [Example 149, [(3S,4S,5R)-4,5,6-tri(propanoyloxy)tetrahydropyran-3-yl] propanoate] | C (>75% of the tested compound remaining) | C (>75% of the tested compound remaining)
16 | CCCC(=O)OC1O[C@@H](C)[C@H](OC(=O)CCC)[C@@H](OC(=O)CCC)[C@H]1OC(=O)CCC (stereo partly drawn) [Example 152, [(2S,3S,4R,5R)-4,5,6-tri(butanoyloxy)-2-methyl-tetrahydropyran-3-yl] butanoate] | C (>75% of the tested compound remaining) | C (>75% of the tested compound remaining)
17 | C[C@@H]1OC(O)[C@H](OC(=O)Cc2c[nH]c3ccccc23)[C@H](OC(=O)Cc2c[nH]c3ccccc23)[C@H]1OC(=O)Cc1c[nH]c2ccccc12 (stereo partly drawn) [Example 155, [(2S,3S,4R,5R)-6-hydroxy-4,5-bis[[2-(1H-indol-3-yl)acetyl]oxy]-2-methyl-tetrahydropyran-3-yl] 2-(1H-indol-3-yl)acetate] | C (>75% of the tested compound remaining) | C (>75% of the tested compound remaining)
18 | CCCC(=O)O[C@@H]1[C@H](OC(=O)CCC)[C@H](C)OC(O)[C@H]1OC(=O)CCC (stereo partly drawn) [Example 156, [(2S,3R,4R,5S)-4,5-di(butanoyloxy)-6-hydroxy-2-methyl-tetrahydropyran-3-yl] butanoate] | C (>75% of the tested compound remaining) | A (<25% of the tested compound remaining)
19 | CCC(=O)OC1O[C@@H](C)[C@@H](OC(=O)CC)[C@@H](OC(=O)CC)[C@@H]1OC(=O)CC (stereo partly drawn) [Example 157, [(2S,3R,4R,5S)-2-methyl-4,5,6-tri(propanoyloxy)tetrahydropyran-3-yl] propanoate] | C (>75% of the tested compound remaining) | A (<25% of the tested compound remaining)
20 | CCCC(=O)OC[C@H]1OC(OC(=O)CCC)[C@H](OC(=O)CCC)[C@@H](OC(=O)CCC)[C@@H]1OC(=O)CCC (stereo partly drawn) [Example 160, [(2R,3R,4S,5R)-3,4,5,6-tetra(butanoyloxy)tetrahydropyran-2-yl]methyl butanoate] | C (>75% of the tested compound remaining) | A (<25% of the tested compound remaining)
21 | CCCC(=O)OC[C@H]1OC(O)[C@H](OC(=O)CCC)[C@@H](OC(=O)CCC)[C@@H]1OC(=O)CCC (stereo partly drawn) [Example 161, [(2R,3R,4S,5R)-3,4,5-tri(butanoyloxy)-6-hydroxy-tetrahydropyran-2-yl]methyl butanoate] | C (>75% of the tested compound remaining) | A (<25% of the tested compound remaining)
22 | CC(=O)OCC1(OC(C)=O)OC[C@@H](OC(C)=O)[C@H](OC(C)=O)[C@@H]1OC(C)=O (stereo partly drawn) [Example 162, [(3S,4S,5R)-2,3,4,5-tetraacetoxytetrahydropyran-2-yl]methyl acetate] | C (>75% of the tested compound remaining) | B (25-75% of the tested compound remaining)
